Data as given in patent publication US7923465B2, “Cannabinoid receptor ligands, pharmaceutical compositions containing them, and process for their preparation” (priority 2005, dated 2011).
Where two headings read alike, the source gives them in different places.

Assays:
hCB2 [1] = target: T1, hCB2 (Homo sapiens, UniProt P34972); test: Agonism of CB2 receptors expressed in CHO cells, forskolin cAMP assay (Protocol IX.2); type: cell-based; design: expressed in transfected cells; host or cells: CHO (h-CB2/CHO, G418-selected); conditions: for IC50: cAMP
Experimental: (§1) IX. Assay for Determining Agonist and Antagonist Activity to CB1 and CB2 Receptors
(§2) 2. Agonism of CB1/CB2 Receptors Expressed in CHO Cells
(§3) h-CB1/CHO or h-CB2/CHO cells were grown in HAM's F12 DMEM medium (Sigma) with 10% FBS (Hyclone), 1% penicillin-streptomycin solution and 400 μg/ml of G418 (Sigma). 5000 cells were seeded per well in a 96 well plate and incubated for 24 hours at 37° C. in 5% CO2. On the day of assay, cells were washed with warm Krebs Buffer containing 0.1% fatty acid free (FAF) BSA (Sigma) and re-suspended in the same buffer containing 1 mM IBMX. Test compound or CP 55,940 as a reference compound (30 nM final concentration for CB1 testing and 10 μM of the same for CB2 testing) diluted in FFB+IBMX+Krebs buffer was added to the cells followed by forskolin addition (10 uM final concentration) and incubated for 30 minutes at room temperature. At the end of incubation, cells were lysed using lysis reagent from the cAMP estimation kit and cAMP was quantitated by chemiluminescence method described in the manufacturer's instructions (DiscoveRX). EC50 values were calculated from dose response curves by nonlinear regression analysis using PRISM software.

hCB2 [2] = target: T1, hCB2; test: Antagonism of CB2 receptors expressed in CHO cells, cAMP assay against CP 55,940 (Protocol IX.1); type: cell-based; design: expressed in transfected cells; host or cells: CHO (h-CB2/CHO, G418-selected); conditions: h-CB2/CHO cells, vs 10 nM CP 55,940; for inhibition at 10 µM: CHO
Experimental: as §1
(§4) 1. Antagonism of CB1/CB2 Receptors Expressed in CHO Cells.
h-CB1/CHO or h-CB2/CHO cells were grown in HAM's F12 DMEM medium (Sigma) with 10% FBS (Hyclone), 1% penicillin-streptomycin solution and 400 μg/ml of G418 (Sigma). 5000 cells were seeded per well in a 96 well plate and incubated for 24 hours at 37° C. in 5% CO2. On the day of assay, cells were washed with warm Krebs buffer containing 0.1% fatty acid free (FAF) BSA (Sigma) and re-suspended in the same buffer containing 1 mM IBMX. Test antagonist or reference compound (AM 251 (1-(2,4-dichlorophenyl)-5-(4-iodophenyl)-4-methyl-N-(1-piperidyl)pyrazole-3-carboxamide) for CB1 and SR144528 for CB2) diluted in FAFBSA+IBMX+Krebs buffer was added to the cells and incubated for 10 minutes at room temperature. CP 55,940 (30 nM final concentration for CB1 testing and 10 nM of the same for CB2 testing) was added to cells followed by forskolin (10 μM final concentration) and incubated for 30 minutes at room temperature. At the end of incubation, cells were lysed using lysis reagent from the cAMP estimation kit and cAMP was quantitated by the chemiluminescence method described in the manufacturer's instructions (DiscoveRX). EC50 values were calculated from dose response curves by nonlinear regression analysis using PRISM software.

hCB2 [3] = target: T1, hCB2; test: In vitro binding assay using hCB2-CHO membranes, [3H]-CP-55,940 displacement (Protocol IV); design: expressed in transfected cells; host or cells: CHO (hCB2-CHO, generated in-house); conditions: 1 h, read-out: % Displacement Protocol IV
Procedure, shortened: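 Compounds were tested at a single 300 nM final concentration for displacing 0.75 nM [3H]-CP-55,940 from hCB2-CHO membranes (1 h, 30 °C, 50 mM Tris pH 7.4, 5 mM MgCl2, 1 mM EDTA, 0.1% BSA). Filter-bound radioactivity was counted, with 0.5 μM unlabelled CP-55,940 for nonspecific binding; results are % displacement.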

hCB1 [4] = target: T2, hCB1 (Homo sapiens, UniProt P21554); test: Agonism of CB1 receptors expressed in CHO cells, forskolin cAMP assay (Protocol IX.2); type: cell-based; design: expressed in transfected cells; host or cells: CHO (h-CB1/CHO, G418-selected); conditions: for activation at 10 µM: CHO; for activation at 10 µM / hCB1 Agonism: h-CB1/CHO cells, cAMP, at 10 uM
Experimental: as §1, §2
as §3, with “Test compound or CP 55,940 as a reference compound (30 nM final concentration for CB1 testing and 10 μM of the same for CB2 testing) diluted in FFB+IBMX+Krebs buffer was added to the cells followed by forskolin addition (10 uM final concentration) and incubated for 30 minutes at room temperature.” left out

hCB1 [5] = target: T2, hCB1; test: Antagonism of CB1 receptors expressed in CHO cells, cAMP assay against CP 55,940 (Protocol IX.1); type: cell-based; design: expressed in transfected cells; host or cells: CHO (h-CB1/CHO, G418-selected); conditions: for inhibition at 10 µM: read-out: hCB1 Antagonism
Experimental: as §1, §4
h-CB1/CHO or h-CB2/CHO cells were grown in HAM's F12 DMEM medium (Sigma) with 10% FBS (Hyclone), 1% penicillin-streptomycin solution and 400 μg/ml of G418 (Sigma). 5000 cells were seeded per well in a 96 well plate and incubated for 24 hours at 37° C. in 5% CO2. On the day of assay, cells were washed with warm Krebs buffer containing 0.1% fatty acid free (FAF) BSA (Sigma) and re-suspended in the same buffer containing 1 mM IBMX. […] At the end of incubation, cells were lysed using lysis reagent from the cAMP estimation kit and cAMP was quantitated by the chemiluminescence method described in the manufacturer's instructions (DiscoveRX). EC50 values were calculated from dose response curves by nonlinear regression analysis using PRISM software.

CB1 = CB1 (Rattus norvegicus, UniProt P20272); test: Rat CB1 receptor binding using brain membrane, [3H]SR141716A displacement (Protocol I); design: CB1 receptor present in a rat brain membrane preparation; from tissue; host or cells: rat brain membrane; inhibition: dose or concentration left out as unconfirmed; conditions: 1 h; rat brain membrane, [3H]SR141716A displacement; read-out: % Displacement Protocol I
[6] = h-CB2/CHO cells, read-out: hCB2 Agonism IC50
[7] = at 10 uM, h-CB1/CHO cells, cAMP, vs 30 nM CP 55,940
[8] = hCB2 Agonism IC50, h-CB2/CHO cells
[9] = hCB2-CHO membranes, [3H]-CP-55,940 displacement

T2 sequence (P21554 whole entry): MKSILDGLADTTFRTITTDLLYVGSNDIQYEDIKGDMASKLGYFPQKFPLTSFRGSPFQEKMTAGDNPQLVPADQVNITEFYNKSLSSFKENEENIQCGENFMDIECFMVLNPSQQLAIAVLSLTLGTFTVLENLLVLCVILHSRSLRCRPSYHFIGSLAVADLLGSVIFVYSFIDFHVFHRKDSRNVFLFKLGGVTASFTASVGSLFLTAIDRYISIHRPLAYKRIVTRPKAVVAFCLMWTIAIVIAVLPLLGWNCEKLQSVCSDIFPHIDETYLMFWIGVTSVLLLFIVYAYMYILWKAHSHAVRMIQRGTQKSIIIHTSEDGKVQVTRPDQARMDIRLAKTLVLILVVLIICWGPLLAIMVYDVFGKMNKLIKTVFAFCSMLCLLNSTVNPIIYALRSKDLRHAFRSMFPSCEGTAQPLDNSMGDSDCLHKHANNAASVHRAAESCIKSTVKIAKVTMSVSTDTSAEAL
T1 sequence (P34972 whole entry): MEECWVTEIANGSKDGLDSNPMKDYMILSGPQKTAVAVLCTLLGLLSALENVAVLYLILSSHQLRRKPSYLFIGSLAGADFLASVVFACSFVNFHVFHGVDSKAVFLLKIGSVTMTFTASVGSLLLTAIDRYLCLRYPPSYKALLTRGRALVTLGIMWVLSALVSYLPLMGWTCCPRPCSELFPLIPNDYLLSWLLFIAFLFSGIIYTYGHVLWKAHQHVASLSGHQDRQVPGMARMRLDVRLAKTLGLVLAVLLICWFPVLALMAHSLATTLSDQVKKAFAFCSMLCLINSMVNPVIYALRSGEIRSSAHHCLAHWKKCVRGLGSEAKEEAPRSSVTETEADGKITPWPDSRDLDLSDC
Sequence of CB1 (P20272 whole entry): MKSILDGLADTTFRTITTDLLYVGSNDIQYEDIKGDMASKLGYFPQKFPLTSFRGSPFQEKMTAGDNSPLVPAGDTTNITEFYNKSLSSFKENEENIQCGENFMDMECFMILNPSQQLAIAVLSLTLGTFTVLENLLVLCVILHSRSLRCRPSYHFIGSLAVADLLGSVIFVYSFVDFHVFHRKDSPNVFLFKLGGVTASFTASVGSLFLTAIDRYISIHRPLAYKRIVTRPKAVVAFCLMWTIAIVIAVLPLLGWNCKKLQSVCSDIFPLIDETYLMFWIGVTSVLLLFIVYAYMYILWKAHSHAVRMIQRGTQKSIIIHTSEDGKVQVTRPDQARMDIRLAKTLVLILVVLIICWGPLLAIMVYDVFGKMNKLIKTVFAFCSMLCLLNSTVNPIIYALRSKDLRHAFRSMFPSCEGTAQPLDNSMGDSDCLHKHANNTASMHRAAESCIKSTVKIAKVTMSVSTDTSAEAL

Compound | melting point [°C] | IC50 (hCB2 [1]; [6]) [nM] | inhibition at 10 µM (hCB2 [2]) [%] | inhibition at 0.3 µM (hCB2 [3]) [%] | activation at 10 µM (hCB1 [4]) [%] | inhibition at 10 µM (hCB1 [5]; [7]) [%] | IC50 (hCB1 [4]) [nM] | inhibition at 10 µM (hCB1 [5]; CHO) [%] | IC50 (hCB2 [1]; [8]) [nM] | inhibition at 0.3 µM (hCB2 [3]; [9]) [%] | hCB2 Antagonism (hCB2 [2]; at 10 uM) [% at] | hCB1 Agonism (hCB1 [4]) [% at] | hCB1 Antagonism (hCB1 [5]; [7]) [% at 10 uM] | inhibition (CB1) [%] | hCB2 Agonism (hCB2 [1]; bare number, no unit or concentration given)
O=C(NCC1CC1)c1nn(-c2ccc(F)cc2F)c2c1C1CCC2C1 (centres unmarked) [Example 314, N(3)-Cyclopropanmethyl-1-(2,4-difluorophenyl)-4,5,6,7-tetrahydro-1H-4,7-methano-indazole-3-carboxamide] | 113 to 115 | 8.52 | 22.9 | 64.9 | 3.41 | 0 |  |  |  |  |  |  |  |  | 
O=C(NC1CCC1)c1nn(-c2ccc(F)cc2F)c2c1C1CCC2C1 (centres unmarked) [Example 315, N(3)-Cyclobutyl-1-(2,4-difluorophenyl)-4,5,6,7-tetrahydro-1H-4,7-methano-indazole-3-carboxamide] | 123 to 125 | 0.16 to 1.76 | 16.1 | 64.2 | 12.6 | 1 |  |  |  |  |  |  |  |  | 
CC(C)(C)NC(=O)c1nn(-c2ccc(F)cc2F)c2c1C1CCC2C1 (centres unmarked) [Example 303, N(3)-(tert-Butyl)-1-(2,4-difluorophenyl)-4,5,6,7-tetrahydro-1H-4,7-methano-indazole-3-carboxamide] |  | 0.61 | 17.6 | 89.7 |  |  | 10900 | 0 |  |  |  |  |  |  | 
O=C(NCc1ccccc1F)c1nn(-c2ccc(Cl)cc2Cl)c2c1C1CCC2C1 (centres unmarked) [Example 245, N(3)-(2-Fluorobenzyl)-1-(2,4-dichlorophenyl)-4,5,6,7-tetrahydro-1H-4,7-methano-indazole-3-carboxamide] | 54 |  | 32.9 |  | 0 | 70.7 |  |  | 50.4 | 84.8 |  |  |  |  | 
O=C(NCc1ccc(F)cc1F)c1nn(-c2ccc(Cl)cc2Cl)c2c1C1CCC2C1 (centres unmarked) [Example 247, N(3)-(2,4-Difluorobenzyl)-1-(2,4-dichlorophenyl)-4,5,6,7-tetrahydro-1H-4,7-methano-indazole-3-carboxamide] | 73 to 76 |  | 29.2 |  | 0 | 75.3 |  |  | 5.44 | 79.1 |  |  |  |  | 
CC(C)(C)NC(=O)c1nn(-c2ccc(F)cc2F)c2c1[C@@H]1CC[C@H]2C1 (single isomer, unassigned) [Example 305] |  | 2.16 |  |  |  |  |  |  |  |  | 37.45 | 20 | 0 |  | 
O=C(NNc1cccc(F)c1)c1nn(-c2ccc(Cl)cc2Cl)c2c1C1CCC2C1 (centres unmarked) [Example 266, N(3)-[(3-Fluorophenyl)amino]-1-(2,4-dichlorophenyl)-4,5,6,7-tetrahydro-1H-4,7-methano-indazole-3-carboxamide] | 190 |  | 27.7 |  | 12.1 |  |  |  | 14 | 62 |  |  |  | 34.5 | 
O=C(NC(CO)c1ccccc1)c1nn(-c2ccc(F)cc2F)c2c1C1CCC2C1 [Example 302, N5-[(1S)-2-Hydro-1-phenylethyl]-3-(2,4-difluorophenyl)-3,4-diazatricyclo[5.2.1.0.^2,6]deca-2(6),4-diene-5-carboxamide] | 91 | 9.75 | 0 | 71.8 | 19 |  |  |  |  |  |  |  |  |  | 
CC(C)(C)NC(=O)c1nn(-c2ccc(F)cc2F)c2c1[C@@H]1CC[C@H]2C1 (single isomer, unassigned) [Example 304] |  | 0.93 | 51.6 |  |  | 0 |  |  |  |  |  | 55 |  |  | 
O=C(Nc1ccc(F)cc1F)c1nn(-c2ccc(Cl)cc2Cl)c2c1C1CCC2C1 (centres unmarked) [Example 244, N(3)-(2,4-Difluorophenyl)-1-(2,4-dichlorophenyl)-4,5,6,7-tetrahydro-1H-4,7-methano-indazole-3-carboxamide] | 152 to 155 | 5.66 | 25.3 | 88.3 | 0 | 61.5 |  |  |  |  |  |  |  |  | 
CC(C)(C)NC(=O)c1nn(-c2ccc(F)cc2)c2c1C1CCC2C1 (centres unmarked) [Example 323, N(3)-(tert-Butyl)-1-(4-fluorophenyl)-4,5,6,7-tetrahydro-1H-4,7-methano-indazole-3-carboxamide] | 131 to 133 | 14.1 | 18 | 82.5 | 0 | 0 |  |  |  |  |  |  |  |  | 
O=C(NC1CCCCC1)c1nn(-c2ccccc2)c2c1C1CCC2C1 (centres unmarked) [Example 202, N(3)-Cyclohexyl-1-phenyl-4,5,6,7-tetrahydro-1H-4,7-methano-indazole-3-carboxamide] | 107 |  |  |  | 0 | 0 |  |  |  | 70.1 |  |  |  | 28.2 | 16.79
O=C(N[C@@H](CO)c1ccccc1)c1nn(-c2ccc(F)cc2F)c2c1C1CCC2C1 (stereo partly drawn) [Example 320, N(3)-[(1R)-2-Hydroxy-1-phenylethyl]-1-(2,4-difluorophenyl)-4,5,6,7-tetrahydro-1H-4,7-methano-indazole-3-carboxamide] |  | 0.76 to 1.25 | 22.5 | 67.8 | 29.1 | 0 |  |  |  |  |  |  |  |  | 
